What was measured:
RCC4 = assay: XTT IC50 / viability assay, RCC4 cells; type: cell-based, human; conditions: Homo sapiens, RCC4, 96 h; XTT assay, four days
Method in brief: (§1)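 RCC4 parental and VHL-reintroduced RCC4/VHL cells (DMEM, 10% FCS) treated with serially diluted drug for four days. Viability by XTT (0.3 mg/mL) with N-methyl dibenzopyrazine methyl sulfate, 1–2 h at 37 °C, absorbance 450 nm; IC50 by linear interpolation.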

RCC4/VHL = assay: XTT IC50 assay, selectivity RCC4 versus RCC4 with VHL-reintroduced; type: cell-based, human; conditions: selectivity ratio of XTT IC50 values, RCC4 vs RCC4/VHL
Method in brief: as §1

`CCC(=O)Nc1cccc(S(=O)(=O)NCc2ccc(C(=O)Nc3cccnc3)cc2)c1` [Example 143, 4-[({[3-(Propionylamino)phenyl]sulfonyl}amino)methyl]-N-(3-pyridinyl)benzamide] gave a melting point of 215 to 218 °C.
In the case of `CC(=O)Nc1ccc(NC(=O)c2ccc(CNS(=O)(=O)c3ccc(C(C)(C)C)cc3)cc2)cn1` [Example 119, N-[6-(Acetylamino)-3-pyridinyl]-4-({[(4-tert-butylphenyl)sulfonyl]amino}methyl)benzamide], the IC50 (RCC4) is reported as > 20000 nM and the melting point is reported as 240 to 243 °C.
Work on `O=C(Nc1cccnc1)c1ccc(CNS(=O)(=O)c2ccc(C34CC5CC(CC(Cl)(C5)C3)C4)cc2)cc1` (hydrate or solvate) [Example 40, 4-[({[4-(3-chloro-1-adamantyl)phenyl]sulfonyl}amino)methyl]-N-(3-pyridinyl)benzamide] yielded a melting point of 229 to 232 °C.
With `CC(C)(C)c1ccc(S(=O)(=O)NCc2ccc(C(=O)Nc3ccncc3)cc2)cc1` [Example 106, 4-((4-tert-Butylphenylsulfonamido)methyl)-N-(pyridin-4-yl)benzamide] the melting point was 261 to 263 °C.
Work on `O=C(Nc1cccnc1)c1ccc(CNS(=O)(=O)c2ccc(C34CC5CC(CC(C5)C3)C4)cc2)cc1` (hydrate or solvate) [Example 39, 4-[({[4-(1-Adamantyl)phenyl]sulfonyl}amino)methyl]-N-(3-pyridinyl)benzamide] yielded a melting point of 220 to 222 °C.
Work on `CC(C)(C)c1ccc(S(=O)(=O)NCc2ccc(C(=O)Nc3cccnc3)cc2F)cc1` [Example 148, 4-({[(4-tert-Butylphenyl)sulfonyl]amino}methyl)-3-fluoro-N-(3-pyridinyl)benzamide] yielded a melting point of 198 to 200 °C.
`Cc1cc(C(=O)Nc2cccnc2)ccc1CNS(=O)(=O)c1ccc(C(C)(C)C)cc1` [Example 147, 4-({[(4-tert-Butylphenyl)sulfonyl]amino}methyl)-3-methyl-N-(3-pyridinyl)benzamide] showed a melting point of 203 to 205 °C.
With `N#Cc1cc(S(=O)(=O)NCc2ccc(C(=O)Nc3cccnc3)cc2)ccc1F` [Example 71, 4-((3-Cyano-4-fluorophenylsulfonamido)methyl)-N-(pyridin-3-yl)benzamide] the melting point was 211 to 213 °C.
Molecule `CC(C)(C)c1ccc(S(=O)(=O)NCc2ccc(C(=O)Nc3cccnc3)c(F)c2)cc1` [Example 146, 4-({[(4-tert-Butylphenyl)sulfonyl]amino}methyl)-2-fluoro-N-(3-pyridinyl)benzamide] has a melting point of 185 to 187 °C.
Work on `C=CC(=O)Nc1cccc(S(=O)(=O)NCc2ccc(C(=O)Nc3cccnc3)cc2)c1` [Example 144, 4-[({[3-(Acryloylamino)phenyl]sulfonyl}amino)methyl]-N-(3-pyridinyl)benzamide] yielded a melting point of 178 to 180 °C.
With `Cc1ccc(S(=O)(=O)NCc2ccc(C(=O)Nc3cccnc3)cc2)cc1F` [Example 67, 4-((3-Fluoro-4-methylphenylsulfonamido)methyl)-N-(pyridin-3-yl)benzamide] the “Ratio (RCC4:RCC/VHL)” value (RCC4/VHL) was “c (“c” reflects a ratio of >100)” and the IC50 (RCC4) was < 1000 nM.
With `O=C(Nc1cccnc1)c1ccc(CNS(=O)(=O)c2ccccc2)cc1` [Example 2, 4-(Phenylsulfonamidomethyl)-N-(pyridin-3-yl)benzamide] the “Ratio (RCC4:RCC/VHL)” value (RCC4/VHL) was “a (“a” reflects a ratio of RCC4/RCC-VHL+ ranging from 1 to 10)” and the IC50 (RCC4) was 1000 to 20000 nM.
With `Cc1c(C)c(C)c(S(=O)(=O)NCc2ccc(C(=O)Nc3cccnc3)cc2)c(C)c1C` [Example 63, 4-((2,3,4,5,6-Pentamethylphenylsulfonamido)methyl)-N-(pyridin-3-yl)benzamide] the “Ratio (RCC4:RCC/VHL)” value (RCC4/VHL) was “b (“b” reflects from 10 to 100)” and the IC50 (RCC4) was < 1000 nM.
In the case of `C#Cc1ccc(S(=O)(=O)NCc2ccc(C(=O)Nc3cccnc3)cc2)cc1` [Example 95, 4-((4-Ethynylphenylsulfonamido)methyl)-N-(pyridin-3-yl)benzamide], the “Ratio (RCC4:RCC/VHL)” value (RCC4/VHL) is reported as “b (“b” reflects from 10 to 100)” and the IC50 (RCC4) is reported as 1000 to 20000 nM.
For `CC(C)(C)c1ccc(S(=O)(=O)NCc2ccc(C(=O)Nc3cccnc3Cl)cc2)cc1` [Example 113, 4-({[(4-tert-Butylphenyl)sulfonyl]amino}methyl)-N-(2-chloro-3-pyridinyl)benzamide], the “Ratio (RCC4:RCC/VHL)” value (RCC4/VHL) was “a (“a” reflects a ratio of RCC4/RCC-VHL+ ranging from 1 to 10)” and the IC50 (RCC4) was > 20000 nM.
With `O=C(Nc1cccnc1)c1ccc(CNS(=O)(=O)c2cccc(Br)c2)cc1` [Example 22, 4-((3-Bromophenylsulfonamido)methyl)-N-(pyridin-3-yl)benzamide] the “Ratio (RCC4:RCC/VHL)” value (RCC4/VHL) was “b (“b” reflects from 10 to 100)” and the IC50 (RCC4) was < 1000 nM.
In the case of `Cc1cc(CNS(=O)(=O)c2ccc(C(C)(C)C)cc2)ccc1C(=O)Nc1cccnc1` [Example 145, 4-({[(4-tert-Butylphenyl)sulfonyl]amino}methyl)-2-methyl-N-(3-pyridinyl)benzamide], the melting point is reported as 162 to 163 °C.
For `O=C(Nc1cccnc1)c1ccc(CNS(=O)(=O)c2ccc(Br)cc2)cc1` [Example 45, 4-((4-Bromophenylsulfonamido)methyl)-N-(pyridin-3-yl)benzamide], the “Ratio (RCC4:RCC/VHL)” value (RCC4/VHL) was “b (“b” reflects from 10 to 100)” and the IC50 (RCC4) was 1000 to 20000 nM.
For `Nc1cccc(S(=O)(=O)NCc2ccc(C(=O)Nc3cccnc3)cc2)c1` [Example 17, 4-((3-Aminophenylsulfonamido)methyl)-N-(pyridin-3-yl)benzamide], the “Ratio (RCC4:RCC/VHL)” value (RCC4/VHL) was “b (“b” reflects from 10 to 100)” and the IC50 (RCC4) was 1000 to 20000 nM.
In the case of `Cc1nnc(-c2cccc(S(=O)(=O)NCc3ccc(C(=O)Nc4cccnc4)cc3)c2)o1` [Example 29, 4-[({[3-(5-Methyl-1,3,4-oxadiazol-2-yl)phenyl]sulfonyl}amino)methyl]-N-(3-pyridinyl)benzamide], the “Ratio (RCC4:RCC/VHL)” value (RCC4/VHL) is reported as “b (“b” reflects from 10 to 100)” and the IC50 (RCC4) is reported as 1000 to 20000 nM.
For `O=C(Nc1cccnc1)c1ccc(CNS(=O)(=O)c2cccc(F)c2)cc1` [Example 20, 4-((3-Fluorophenylsulfonamido)methyl)-N-(pyridin-3-yl)benzamide], the “Ratio (RCC4:RCC/VHL)” value (RCC4/VHL) was “b (“b” reflects from 10 to 100)” and the IC50 (RCC4) was < 1000 nM.
For `CCCN(CCC)Cc1ccc(S(=O)(=O)NCc2ccc(C(=O)Nc3cccnc3)cc2)cc1` [Example 79, 4-{[({4-[(Dipropylamino)methyl]phenyl}sulfonyl)amino]methyl}-N-(3-pyridinyl)benzamide], the “Ratio (RCC4:RCC/VHL)” value (RCC4/VHL) was “b (“b” reflects from 10 to 100)” and the IC50 (RCC4) was < 1000 nM.
In the case of `O=C(Nc1cccnc1)c1ccc(CNS(=O)(=O)c2ccc(C(F)(F)F)cc2)cc1` [Example 49, N-(Pyridin-3-yl)-4-((4-(trifluoromethyl)phenylsulfonamido)methyl)benzamide], the “Ratio (RCC4:RCC/VHL)” value (RCC4/VHL) is reported as “a (“a” reflects a ratio of RCC4/RCC-VHL+ ranging from 1 to 10)” and the IC50 (RCC4) is reported as 1000 to 20000 nM.
For `Cc1cccc(Nc2nc(-c3ccncc3)cs2)c1` [Compound E, reference compound], the “Ratio (RCC4:RCC/VHL)” value (RCC4/VHL) was “b (“b” reflects from 10 to 100)” and the IC50 (RCC4) was 1000 to 20000 nM.
With `Cc1cc(C)cc(S(=O)(=O)NCc2ccc(C(=O)Nc3cccnc3)cc2)c1` [Example 66, 4-((3,5-Dimethylphenylsulfonamido)methyl)-N-(pyridin-3-yl)benzamide] the “Ratio (RCC4:RCC/VHL)” value (RCC4/VHL) was “c (“c” reflects a ratio of >100)” and the IC50 (RCC4) was < 1000 nM.
For `O=C(Nc1cccnc1)c1ccc(CNS(=O)(=O)c2ccc(CN3CCCCC3)cc2)cc1` [Example 81, 4-[({[4-(1-Piperidinylmethyl)phenyl]sulfonyl}amino)methyl]-N-(3-pyridinyl)benzamide], the “Ratio (RCC4:RCC/VHL)” value (RCC4/VHL) was “b (“b” reflects from 10 to 100)” and the IC50 (RCC4) was < 1000 nM.

— patent US20120225862A1, “HETEROARYL BENZAMIDES, COMPOSITIONS AND METHODS OF USE” (AUCKLAND UNIVSERVICES LIMITED, priority 2009, published 2012)
